According to ChEMBL document CHEMBL3525917, “Species difference in the mechanism of nonlinear pharmacokinetics of E2074, a novel sodium channel inhibitor, in rats, dogs, and monkeys” (Drug Metab Dispos, 2013):

Columns and labels:
[1] = Oral bioavailability in Sprague-Dawley rat at 10 mg/kg; type: ADME, organism-based; details: in vivo
[2] = Cmax in MDR1A/1B knock-out mouse at 3 mg/kg, po; type: ADME, organism-based; set-up: dose 3 mg/kg, route oral; details: in vivo
[3] = AUC in beagle dog at 1 mg/kg, iv; type: ADME, organism-based, Canis lupus familiaris; set-up: dose 1 mg/kg, route intravenous; details: plasma
[4] = Volume of distribution at steady state in cynomolgus monkey at 1 mg/kg, iv in presence of ketoconazole; type: ADME, organism-based, Macaca fascicularis; set-up: dose 1 mg/kg, route intravenous; details: in vivo, read-out: Vdss
[5] = Tmax in wild-type mouse at 3 mg/kg, po; type: ADME, organism-based; set-up: dose 3 mg/kg, route oral; details: in vivo
[6] = Oral bioavailability in beagle dog at 10 mg/kg; type: ADME, organism-based, Canis lupus familiaris; details: in vivo
[7] = Half life in cynomolgus monkey at 10 mg/kg, po in presence of ketoconazole; type: ADME, organism-based, Macaca fascicularis; set-up: dose 10 mg/kg, route oral; details: in vivo
Canis familiaris = species on record: Canis familiaris; assay: Hepatic blood clearance in beagle dog; type: ADME, organism-based, Canis lupus familiaris; details: in vivo
[8] = Oral bioavailability in cynomolgus monkey at 10 mg/kg; type: ADME, organism-based, Macaca fascicularis; details: in vivo
[9] = AUC in wild-type mouse at 3 mg/kg, po; type: ADME, organism-based; set-up: dose 3 mg/kg, route oral; details: plasma
[10] = Oral bioavailability in Sprague-Dawley rat at 30 mg/kg; type: ADME, organism-based; details: in vivo
[11] = Drug metabolism in beagle dog intestinal microsomes; type: ADME, Canis lupus familiaris, Intestine, Microsome
[12] = AUC in beagle dog at 3 mg/kg, po; type: ADME, organism-based, Canis lupus familiaris; set-up: dose 3 mg/kg, route oral; details: plasma
[13] = Fraction unbound in cynomolgus monkey plasma at 0.25 uM by equilibrium dialysis technique; type: ADME, cell-free, Macaca fascicularis
[14] = Drug metabolism in Sprague-Dawley rat intestinal microsomes; type: ADME, Intestine, Microsome
[15] = Tmax in Sprague-Dawley rat at 30 mg/kg, po; type: ADME, organism-based; set-up: dose 30 mg/kg, route oral; details: in vivo
Cynomolgus monkey [16] = assay: Ratio of dose normalized Cmax in cynomolgus monkey at 3 mg/kg, po in presence of ketoconazole to dose normalized Cmax in cynomolgus monkey at 3 mg/kg, po; type: ADME, organism-based, Macaca fascicularis; details: in vivo
Cynomolgus monkey [17] = assay: Ratio of dose normalized AUC in cynomolgus monkey at 1 mg/kg, iv in presence of ketoconazole to dose normalized AUC in cynomolgus monkey at 1 mg/kg, iv; type: ADME, organism-based, Macaca fascicularis; details: in vivo
Cynomolgus monkey [18] = assay: Unbound intrinsic clearance in cynomolgus monkey; type: ADME, organism-based, Macaca fascicularis; details: in vivo
[19] = Half life in cynomolgus monkey at 10 mg/kg, po; type: ADME, organism-based, Macaca fascicularis; set-up: dose 10 mg/kg, route oral; details: in vivo
Cynomolgus monkey [20] = assay: Ratio of dose normalized AUC in cynomolgus monkey at 10 mg/kg, po in presence of ketoconazole to dose normalized AUC in cynomolgus monkey at 10 mg/kg, po; type: ADME, organism-based, Macaca fascicularis; details: in vivo
[21] = Cmax in cynomolgus monkey at 3 mg/kg, po in presence of ketoconazole; type: ADME, organism-based, Macaca fascicularis; set-up: dose 3 mg/kg, route oral; details: in vivo
[22] = Half life in Sprague-Dawley rat at 3 mg/kg, po; type: ADME, organism-based; set-up: dose 3 mg/kg, route oral; details: in vivo
[23] = Cmax in double-cannulated Sprague-Dawley rat jugular vein at 10 mg/kg, po; type: ADME, organism-based; set-up: dose 10 mg/kg, route oral
[24] = Cmax in double-cannulated Sprague-Dawley rat portal vein at 10 mg/kg, po; type: ADME, organism-based; set-up: dose 10 mg/kg, route oral
[25] = Half life in cynomolgus monkey at 3 mg/kg, po in presence of ketoconazole; type: ADME, organism-based, Macaca fascicularis; set-up: dose 3 mg/kg, route oral; details: in vivo
[26] = Half life in beagle dog at 3 mg/kg, po; type: ADME, organism-based, Canis lupus familiaris; set-up: dose 3 mg/kg, route oral; details: in vivo
Rattus norvegicus = species on record: Rattus norvegicus; assay: Hepatic blood clearance in Sprague-Dawley rat; type: ADME, organism-based; details: in vivo
[27] = Tmax in cynomolgus monkey at 10 mg/kg, po; type: ADME, organism-based, Macaca fascicularis; set-up: dose 10 mg/kg, route oral; details: in vivo
[28] = Oral bioavailability in beagle dog at 3 mg/kg; type: ADME, organism-based, Canis lupus familiaris; details: in vivo
[29] = Cmax in Sprague-Dawley rat at 10 mg/kg, po; type: ADME, organism-based; set-up: dose 10 mg/kg, route oral; details: in vivo
[30] = Fraction unbound in cynomolgus monkey liver microsomes at 0.25 uM by equilibrium dialysis technique; type: ADME, Macaca fascicularis
[31] = Tmax in cynomolgus monkey at 3 mg/kg, po in presence of ketoconazole; type: ADME, organism-based, Macaca fascicularis; set-up: dose 3 mg/kg, route oral; details: in vivo
[32] = Cmax in wild-type mouse at 3 mg/kg, po; type: ADME, organism-based; set-up: dose 3 mg/kg, route oral; details: in vivo
[33] = Clearance in cynomolgus monkey at 1 mg/kg, iv in presence of ketoconazole; type: ADME, organism-based, Macaca fascicularis; set-up: dose 1 mg/kg, route intravenous; details: in vivo
[34] = AUC in Sprague-Dawley rat at 3 mg/kg, po; type: ADME, organism-based; set-up: dose 3 mg/kg, route oral; details: plasma
[35] = Drug metabolism in cynomolgus monkey liver microsomes after 15 mins by Michaelis-Menten plot analysis; type: ADME, Macaca fascicularis
[36] = Half life in cynomolgus monkey at 1 mg/kg, iv in presence of ketoconazole; type: ADME, organism-based, Macaca fascicularis; set-up: dose 1 mg/kg, route intravenous; details: in vivo
[37] = Tmax in Sprague-Dawley rat at 10 mg/kg, po; type: ADME, organism-based; set-up: dose 10 mg/kg, route oral; details: in vivo
[38] = Ratio of drug level in blood to plasma in beagle dog at 0.25 uM after 10 mins by equilibrium dialysis technique; type: ADME, Canis lupus familiaris; details: blood and plasma
[39] = Half life in cynomolgus monkey at 3 mg/kg, po; type: ADME, organism-based, Macaca fascicularis; set-up: dose 3 mg/kg, route oral; details: in vivo
[40] = Cmax in Sprague-Dawley rat at 3 mg/kg, po; type: ADME, organism-based; set-up: dose 3 mg/kg, route oral; details: in vivo
[41] = Half life in Sprague-Dawley rat at 1 mg/kg, iv; type: ADME, organism-based; set-up: dose 1 mg/kg, route intravenous; details: in vivo
[42] = Tmax in beagle dog at 3 mg/kg, po; type: ADME, organism-based, Canis lupus familiaris; set-up: dose 3 mg/kg, route oral; details: in vivo
[43] = Ratio of drug level in brain to plasma in wild-type mouse at 3 mg/kg, po; type: ADME, organism-based; set-up: dose 3 mg/kg, route oral; details: brain and plasma
[44] = AUC in cynomolgus monkey at 3 mg/kg, po in presence of ketoconazole; type: ADME, organism-based, Macaca fascicularis; set-up: dose 3 mg/kg, route oral; details: plasma
[45] = (§1) Drug metabolism in Sprague-Dawley rat liver microsomes after 7 mins by Michaelis-Menten plot analysis; type: ADME; details: Sprague-Dawley, liver microsomes
Liver microsome = assay: as §1; type: ADME; details: microsomes, 7 min
[46] = target: MDR1A (ABCB1, P-glycoprotein) (Mus musculus, UniProt P21447); assay: Activity of mouse MDR1A expressed in pig LLC-PK1 cells assessed as permeability from basolateral to apical side at 1 uM after 2 hrs; type: ADME, cell-based; details: read-out: permeability
[47] = Clearance in beagle dog at 1 mg/kg, iv; type: ADME, organism-based, Canis lupus familiaris; set-up: dose 1 mg/kg, route intravenous; details: in vivo
[48] = AUC in cynomolgus monkey at 1 mg/kg, iv; type: ADME, organism-based, Macaca fascicularis; set-up: dose 1 mg/kg, route intravenous; details: plasma
[49] = Oral bioavailability in Sprague-Dawley rat at 3 mg/kg; type: ADME, organism-based; details: in vivo
[50] = Fraction unbound in beagle dog plasma at 0.25 uM by equilibrium dialysis technique; type: ADME, cell-free, Canis lupus familiaris

Chain of MDR1A (ABCB1, P-glycoprotein) (P21447 whole entry): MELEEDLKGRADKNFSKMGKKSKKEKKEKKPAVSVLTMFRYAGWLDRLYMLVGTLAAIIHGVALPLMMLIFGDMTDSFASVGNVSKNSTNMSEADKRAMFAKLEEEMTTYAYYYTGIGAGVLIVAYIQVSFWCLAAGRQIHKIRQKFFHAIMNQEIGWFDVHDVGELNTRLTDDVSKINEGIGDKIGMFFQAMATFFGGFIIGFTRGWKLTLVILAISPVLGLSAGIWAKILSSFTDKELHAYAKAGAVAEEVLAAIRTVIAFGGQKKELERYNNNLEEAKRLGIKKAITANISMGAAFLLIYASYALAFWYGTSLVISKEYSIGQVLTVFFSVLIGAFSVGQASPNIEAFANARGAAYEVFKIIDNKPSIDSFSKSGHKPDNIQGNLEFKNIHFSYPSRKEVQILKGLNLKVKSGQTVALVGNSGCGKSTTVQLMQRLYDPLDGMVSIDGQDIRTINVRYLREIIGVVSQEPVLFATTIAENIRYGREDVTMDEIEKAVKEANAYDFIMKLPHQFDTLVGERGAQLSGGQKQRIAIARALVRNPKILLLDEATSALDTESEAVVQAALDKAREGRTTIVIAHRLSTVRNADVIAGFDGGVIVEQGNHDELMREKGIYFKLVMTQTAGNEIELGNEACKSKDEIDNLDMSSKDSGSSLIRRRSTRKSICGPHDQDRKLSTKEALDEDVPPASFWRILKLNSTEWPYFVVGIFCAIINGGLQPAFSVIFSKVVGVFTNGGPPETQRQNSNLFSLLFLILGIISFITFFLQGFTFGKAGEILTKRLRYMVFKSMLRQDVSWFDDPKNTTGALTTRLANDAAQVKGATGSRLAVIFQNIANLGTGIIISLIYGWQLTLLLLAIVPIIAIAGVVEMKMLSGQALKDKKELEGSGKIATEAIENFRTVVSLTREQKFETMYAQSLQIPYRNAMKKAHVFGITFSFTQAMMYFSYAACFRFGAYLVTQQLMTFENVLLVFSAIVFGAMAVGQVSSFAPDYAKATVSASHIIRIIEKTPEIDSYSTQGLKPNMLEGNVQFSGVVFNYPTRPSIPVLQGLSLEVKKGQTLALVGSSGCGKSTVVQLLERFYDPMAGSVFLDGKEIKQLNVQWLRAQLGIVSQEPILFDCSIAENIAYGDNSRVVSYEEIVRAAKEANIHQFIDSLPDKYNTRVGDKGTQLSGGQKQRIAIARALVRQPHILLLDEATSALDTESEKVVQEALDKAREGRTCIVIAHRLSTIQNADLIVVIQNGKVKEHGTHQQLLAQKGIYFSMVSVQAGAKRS

In the case of `Cc1nn(C[C@H](F)CN2C3CCC2CC(OCc2cccc(F)c2)C3)c(=O)n1C` (some centres undefined), the bioavailability [1] is reported as 5.3%, the Cmax [2] is reported as 100 ng/mL and the AUC [3] is reported as 620 ng·h/mL. It also gave a Vd [4] of 3.29 L/kg, a Tmax [5] of 30 min and a bioavailability [6] of 43.7%. For the same compound, the half-life [7] was 164 min, the CLH (Canis familiaris) was 30.5 mL/min/kg and the bioavailability [8] was 20.9%. For the same compound, the AUC [9] was 230 ng·h/mL, the bioavailability [10] was 15.1% and the Drug metabolism [11] was “metabolite_not_detected”. The AUC [12] was 20 ng·h/mL, the fraction unbound at 0.25 µM [13] was 0.676 and the Drug metabolism [14] was “metabolite_not_detected”. The Tmax [15] was 15 min, the Ratio (Cynomolgus monkey [16]) was 1 and the Ratio (Cynomolgus monkey [17]) was 1. The CL free (Cynomolgus monkey [18]) was 84 µL/min/mg, the half-life [19] was 177 min and the Ratio (Cynomolgus monkey [20]) was 6.3. It also gave a Cmax [21] of 400 ng/mL, a half-life [22] of 30 min and a Cmax [23] of 1040 ng/mL. The Cmax [24] was 10600 ng/mL, the half-life [25] was 132 min and the half-life [26] was 54.6 min. The CLH (Rattus norvegicus) was 53.2 mL/min/kg, the Tmax [27] was 60 min and the bioavailability [28] was 1.2%. For the same compound, the Cmax [29] was 200 ng/mL, the fraction unbound at 0.25 µM [30] was 1 and the Tmax [31] was 60 min. It also gave a Cmax [32] of 110 ng/mL, a clearance [33] of 20.3 mL/min/kg and an AUC [34] of 20 ng·h/mL. The Km at 0.25 h ([35]; liver microsomes) was 42.4 µM, the Vmax ([35]; microsomes, 0.25 h) was 3.58 nmol/min/mg and the half-life [36] was 118 min. For the same compound, the Tmax [37] was 15 min, the blood plasma ratio at 10 min, 0.25 µM [38] was 0.86 and the half-life [39] was 95.4 min. It also gave a Cmax [40] of 20 ng/mL, a half-life [41] of 51 min and a Tmax [42] of 30 min. It also gave a Kp [43] of 2.4, an AUC [44] of 1550 ng·h/mL and a Km at 7 min [45] of 7.23 µM. The Vmax (Liver microsome) was 1.42 nmol/min/mg, the Papp B→A at 2 h, 1 µM [46] was 30.4 ×10⁻⁶ cm/s and the clearance [47] was 28.3 mL/min/kg. The AUC [48] was 700 ng·h/mL, the bioavailability [49] was 2.6% and the fraction unbound at 0.25 µM [50] was 0.601.
